Values quoted from earlier work in US20240058414A1, “METHODS OF TREATING MELANOCORTIN-4 RECEPTOR PATHWAY-ASSOCIATED DISORDERS” (RHYTHM PHARMACEUTICALS, INC., priority 2020, published 2024).

Tests used:
[1] = clinical trials; Chen et al. J. Clin. Endocrinol. Metab. 2015
[2] = patients with POMC and LEPR deficiency obesity, earlier pivotal studies

SMILES: CC(=O)N[C@@H](CCCNC(=N)N)C(=O)N[C@H]1CSSC[C@@H](C(N)=O)NC(=O)[C@H](Cc2c[nH]c3ccccc23)NC(=O)[C@H](CCCNC(=N)N)NC(=O)[C@@H](Cc2ccccc2)NC(=O)[C@H](Cc2cnc[nH]2)NC(=O)[C@@H](C)NC1=O [setmelanotide, Ac-Arg-c(Cys-D-Ala-His-D-Phe-Arg-Trp-Cys)-NH2]
- adverse effect on blood pressure [1]: has not been shown to adversely affect blood pressure
- reduction in hunger [2]: statistically significant and clinically meaningful reduction in hunger
- weight loss [2]: rapid and sustained significant and clinically meaningful weight loss
